Results: ChEMBL document CHEMBL4673219, “Novel 5,6-disubstituted pyrrolo[2,3-d]pyrimidine derivatives as broad spectrum antiproliferative agents: Synthesis, cell based assays, kinase profile and molecular docking study” (Bioorg Med Chem, 2018)
Values joined by “and” are separate entries in the source; they are usually repeats but may differ in a detail not shown here. Equal values may be shown once.

Assays:
Hs-578T [1] = assay: Growth inhibition of human Hs-578T cells assessed as growth percentage at 10 uM incubated for 48 hrs by sulforhodamine B assay relative to control; type: functional; conditions: read-out: Activity
PC-3 [2] = assay: Growth inhibition of human PC-3 cells assessed as growth percentage at 10 uM incubated for 48 hrs by sulforhodamine B assay relative to control; type: functional; conditions: read-out: Activity
OVCAR-8 [3] = assay: Growth inhibition of human OVCAR-8 cells assessed as growth percentage at 10 uM incubated for 48 hrs by sulforhodamine B assay relative to control; type: functional; conditions: read-out: Activity
SNB-75 = assay: Growth inhibition of human SNB-75 cells assessed as growth percentage at 10 uM incubated for 48 hrs by sulforhodamine B assay relative to control; type: functional; conditions: read-out: Activity
SNB-19 = assay: Growth inhibition of human SNB-19 cells assessed as growth percentage at 10 uM incubated for 48 hrs by sulforhodamine B assay relative to control; type: functional; conditions: read-out: Activity
[4] = biological target: Fibroblast growth factor receptor 1 (Homo sapiens) (UniProt P11362); assay: Inhibition of human FGFR1 at 10 uM using myelin basic protein as substrate incubated for 40 mins in presence of [gamma33P]ATP by scintillation counting method relative to control
T47D [5] = assay: Growth inhibition of human T47D cells incubated for 48 hrs by sulforhodamine B assay; type: functional; conditions: for GI50: 48 h
BT-549 = assay: Growth inhibition of human BT-549 cells incubated for 48 hrs by sulforhodamine B assay; type: functional
Hs-578T [6] = assay: Growth inhibition of human Hs-578T cells incubated for 48 hrs by sulforhodamine B assay; type: functional
TK-10 = assay: Growth inhibition of human TK-10 cells incubated for 48 hrs by sulforhodamine B assay; type: functional; conditions: for GI50 / TGI: TK-10
RXF 393 = assay: Growth inhibition of human RXF 393 cells incubated for 48 hrs by sulforhodamine B assay; type: functional
OVCAR-5 = assay: Growth inhibition of human OVCAR-5 cells incubated for 48 hrs by sulforhodamine B assay; type: functional
COLO 205 = assay: Growth inhibition of human COLO 205 cells incubated for 48 hrs by sulforhodamine B assay; type: functional
NCI-H522 [7] = assay: Growth inhibition of human NCI-H522 cells incubated for 48 hrs by sulforhodamine B assay; type: functional
NCI-H23 = assay: Growth inhibition of human NCI-H23 cells incubated for 48 hrs by sulforhodamine B assay; type: functional
[8] = Cytotoxicity against human HFF-1 cells assessed as cell growth inhibition at 10 uM by MTT assay relative to control; type: cell-based; conditions: read-out: GI
LOX IMVI = assay: Growth inhibition of human LOX IMVI cells assessed as growth percentage at 100 uM incubated for 48 hrs by sulforhodamine B assay relative to control; type: functional; conditions: read-out: Activity
SF-295 [9] = assay: Growth inhibition of human SF-295 cells assessed as growth percentage at 100 uM incubated for 48 hrs by sulforhodamine B assay relative to control; type: functional; conditions: read-out: Activity
KM12 = assay: Growth inhibition of human KM12 cells assessed as growth percentage at 100 uM incubated for 48 hrs by sulforhodamine B assay relative to control; type: functional; conditions: read-out: Activity
HOP-62 = assay: Growth inhibition of human HOP-62 cells assessed as growth percentage at 100 uM incubated for 48 hrs by sulforhodamine B assay relative to control; type: functional; conditions: read-out: Activity
A549 [10] = assay: Growth inhibition of human A549/ATCC cells assessed as growth percentage at 100 uM incubated for 48 hrs by sulforhodamine B assay relative to control; type: functional; conditions: read-out: Activity
CCRF-CEM = assay: Growth inhibition of human CCRF-CEM cells assessed as growth percentage at 100 uM incubated for 48 hrs by sulforhodamine B assay relative to control; type: functional; conditions: read-out: Activity
T47D [11] = assay: Growth inhibition of human T47D cells assessed as growth percentage at 1 uM incubated for 48 hrs by sulforhodamine B assay relative to control; type: functional; conditions: read-out: Activity
MDA-MB-231 = assay: Growth inhibition of human MDA-MB-231/ATCC cells assessed as growth percentage at 1 uM incubated for 48 hrs by sulforhodamine B assay relative to control; type: functional; conditions: read-out: Activity
UO-31 = assay: Growth inhibition of human UO-31 cells assessed as growth percentage at 1 uM incubated for 48 hrs by sulforhodamine B assay relative to control; type: functional; conditions: read-out: Activity
NCI/ADR-RES = assay: Growth inhibition of human NCI/ADR-RES cells assessed as growth percentage at 1 uM incubated for 48 hrs by sulforhodamine B assay relative to control; type: functional; conditions: read-out: Activity
HCT-116 = assay: Growth inhibition of human HCT-116 cells assessed as growth percentage at 1 uM incubated for 48 hrs by sulforhodamine B assay relative to control; type: functional; conditions: read-out: Activity
NCI-H522 [12] = assay: Growth inhibition of human NCI-H522 cells assessed as growth percentage at 1 uM incubated for 48 hrs by sulforhodamine B assay relative to control; type: functional; conditions: read-out: Activity
NCI-H322M = assay: Growth inhibition of human NCI-H322M cells assessed as growth percentage at 1 uM incubated for 48 hrs by sulforhodamine B assay relative to control; type: functional; conditions: read-out: Activity
MOLT-4 = assay: Growth inhibition of human MOLT-4 cells assessed as growth percentage at 1 uM incubated for 48 hrs by sulforhodamine B assay relative to control; type: functional; conditions: read-out: Activity
DU-145 = assay: Growth inhibition of human DU-145 cells assessed as growth percentage at 0.1 uM incubated for 48 hrs by sulforhodamine B assay relative to control; type: functional; conditions: read-out: Activity
PC-3 [13] = assay: Growth inhibition of human PC-3 cells assessed as growth percentage at 0.1 uM incubated for 48 hrs by sulforhodamine B assay relative to control; type: functional; conditions: read-out: Activity
786-0 = assay: Growth inhibition of human 786-0 cells assessed as growth percentage at 0.1 uM incubated for 48 hrs by sulforhodamine B assay relative to control; type: functional; conditions: read-out: Activity
UACC-62 = assay: Growth inhibition of human UACC-62 cells assessed as growth percentage at 0.1 uM incubated for 48 hrs by sulforhodamine B assay relative to control; type: functional; conditions: read-out: Activity
SF-295 [14] = assay: Growth inhibition of human SF-295 cells assessed as growth percentage at 0.1 uM incubated for 48 hrs by sulforhodamine B assay relative to control; type: functional; conditions: read-out: Activity
A549 [15] = assay: Growth inhibition of human A549/ATCC cells assessed as growth percentage at 0.1 uM incubated for 48 hrs by sulforhodamine B assay relative to control; type: functional; conditions: read-out: Activity
OVCAR-8 [16] = assay: Growth inhibition of human OVCAR-8 cells assessed as growth percentage at 0.01 uM incubated for 48 hrs by sulforhodamine B assay relative to control; type: functional; conditions: read-out: Activity
NCI-H226 = assay: Growth inhibition of human NCI-H226 cells assessed as growth percentage at 0.01 uM incubated for 48 hrs by sulforhodamine B assay relative to control; type: functional; conditions: read-out: Activity
A549 [17] = assay: Growth inhibition of human A549/ATCC cells assessed as growth percentage at 0.01 uM incubated for 48 hrs by sulforhodamine B assay relative to control; type: functional; conditions: read-out: Activity
[18] = read-out: LC50 (the source's name)

Sequence of Fibroblast growth factor receptor 1 (Homo sapiens) (P11362 22-822 limits assumed): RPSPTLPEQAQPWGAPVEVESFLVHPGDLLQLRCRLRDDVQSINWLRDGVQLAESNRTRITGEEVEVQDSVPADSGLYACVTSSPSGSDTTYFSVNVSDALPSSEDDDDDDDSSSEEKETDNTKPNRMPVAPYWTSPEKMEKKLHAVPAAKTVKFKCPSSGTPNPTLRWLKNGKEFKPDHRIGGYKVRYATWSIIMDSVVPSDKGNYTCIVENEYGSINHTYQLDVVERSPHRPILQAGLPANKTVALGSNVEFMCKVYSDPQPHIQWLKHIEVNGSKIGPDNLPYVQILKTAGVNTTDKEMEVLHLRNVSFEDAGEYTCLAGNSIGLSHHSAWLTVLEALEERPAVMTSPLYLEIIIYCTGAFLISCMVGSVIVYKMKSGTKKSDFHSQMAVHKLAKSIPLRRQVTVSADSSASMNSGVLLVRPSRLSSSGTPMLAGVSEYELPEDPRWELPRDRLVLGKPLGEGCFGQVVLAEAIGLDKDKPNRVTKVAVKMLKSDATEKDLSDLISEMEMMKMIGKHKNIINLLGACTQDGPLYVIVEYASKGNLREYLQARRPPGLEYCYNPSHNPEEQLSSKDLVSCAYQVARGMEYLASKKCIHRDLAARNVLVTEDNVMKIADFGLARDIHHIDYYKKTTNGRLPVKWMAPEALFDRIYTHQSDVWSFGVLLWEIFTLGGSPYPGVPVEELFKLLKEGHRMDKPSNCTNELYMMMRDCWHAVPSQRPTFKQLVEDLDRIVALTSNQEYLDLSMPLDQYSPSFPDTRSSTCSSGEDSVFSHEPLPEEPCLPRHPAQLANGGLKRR

Nc1nc2[nH]c(CN3CCN(c4cc(Cl)cc(Cl)c4)CC3)c(CN3CCN(c4cc(Cl)cc(Cl)c4)CC3)c2c(=O)[nH]1
growth at 10 µM (Hs-578T [1]): 98.8%
growth at 10 µM (PC-3 [2]): 59.6%
growth at 10 µM (OVCAR-8 [3]): 40.6%
growth at 10 µM (SNB-75): 63.7%
growth at 10 µM (SNB-19): 79.8%
inhibition [4]: -8.65%
TGI (T47D [5]; Homo sapiens, T47D): 4.02 µM
GI50 (T47D [5]; Homo sapiens, T47D): 1780 nM
GI50 (BT-549): 1720 nM
TGI (BT-549): 3.76 µM
GI50 (Hs-578T [6]): 1780 nM
TGI (Hs-578T [6]): 4.22 µM
GI50 (TK-10): 1800 nM
TGI (TK-10): 3.26 µM
GI50 (RXF 393): 1580 nM
TGI (RXF 393): 3070 nM
GI50 (OVCAR-5): 2640 nM
TGI (OVCAR-5): 9.27 µM
GI50 (COLO 205): 1690 nM
TGI (COLO 205): 3.56 µM
GI50 (NCI-H522 [7]): 1740 nM
TGI (NCI-H522 [7]): 3.44 µM
GI50 (NCI-H23): 2030 nM
TGI (NCI-H23): 3.96 µM
inhibition at 10 µM [8]: 15.8%
growth at 100 µM (LOX IMVI): -35%
growth at 100 µM (SF-295 [9]): -33%
growth at 100 µM (KM12): -84%
growth at 100 µM (HOP-62): -38%
growth at 100 µM (A549 [10]): -45%
growth at 100 µM (CCRF-CEM): -30%
growth at 1 µM (T47D [11]): 85%
growth at 1 µM (MDA-MB-231): 101%
growth at 1 µM (UO-31): 90%
growth at 1 µM (NCI/ADR-RES): 102%
growth at 1 µM (HCT-116): 87%
growth at 1 µM (NCI-H522 [12]): 91%
growth at 1 µM (NCI-H322M): 100%
growth at 1 µM (MOLT-4): 90%
growth at 0.1 µM (DU-145): 109%
growth at 0.1 µM (PC-3 [13]): 96%
growth at 0.1 µM (786-0): 93%
growth at 0.1 µM (UACC-62): 102%
growth at 0.1 µM (SF-295 [14]): 93%
growth at 0.1 µM (A549 [15]): 94%
growth at 0.01 µM (OVCAR-8 [16]): 100%
growth at 0.01 µM (NCI-H226): 95%
growth at 0.01 µM (A549 [17]): 97%

CCCCCCCC(=O)Nc1nc2[nH]c(CN3CCN(Cc4cccc(F)c4)CC3)c(CN3CCN(Cc4cccc(F)c4)CC3)c2c(=O)[nH]1
growth at 10 µM (Hs-578T [1]): -49.4%
growth at 10 µM (PC-3 [2]): -95.1%
growth at 10 µM (OVCAR-8 [3]): -77.7%
growth at 10 µM (SNB-75): -99.2%
growth at 10 µM (SNB-19): -81.6%
inhibition [4]: 54.5%
GI50 (T47D [5]): 160 nM and 1600 nM
TGI (T47D [5]; Homo sapiens, T47D): 3.47 µM
CC50 (T47D [5]; Homo sapiens, T47D, read-out: LC50 (the source's name)): 7.53 µM
GI50 (BT-549): 1530 nM
TGI (BT-549): 2.92 µM
CC50 (BT-549; [18]): 5.58 µM
GI50 (Hs-578T [6]): 1720 nM
TGI (Hs-578T [6]): 4.18 µM
GI50 (TK-10): 1740 nM
TGI (TK-10): 3.26 µM
CC50 (TK-10; TK-10, 48 h, read-out: LC50 (the source's name)): 6.11 µM
GI50 (RXF 393): 510 nM
LC50 (concentration killing 50% of cells) (RXF 393): 4.45 µM
TGI (RXF 393): 1740 nM
GI50 (OVCAR-5): 2640 nM
TGI (OVCAR-5): 9.27 µM
GI50 (COLO 205): 1400 nM
TGI (COLO 205): 2.82 µM
CC50 (COLO 205; [18]): 5.68 µM
GI50 (NCI-H522 [7]): 1910 nM
LC50 (NCI-H522 [7]): 6.88 µM
TGI (NCI-H522 [7]): 3.62 µM
GI50 (NCI-H23): 1860 nM
LC50 (50% lethal concentration) (NCI-H23): 8.02 µM
TGI (NCI-H23): 3.86 µM
inhibition at 10 µM [8]: 14.1%
growth at 100 µM (LOX IMVI): -75%
growth at 100 µM (SF-295 [9]): -81%
growth at 100 µM (KM12): -47%
growth at 100 µM (HOP-62): -95%
growth at 100 µM (A549 [10]): -88%
growth at 100 µM (CCRF-CEM): 8%
growth at 1 µM (T47D [11]): 80%
growth at 1 µM (MDA-MB-231): 33%
growth at 1 µM (UO-31): 25%
growth at 1 µM (NCI/ADR-RES): 79%
growth at 1 µM (HCT-116): -91%
growth at 1 µM (NCI-H522 [12]): 100%
growth at 1 µM (NCI-H322M): 77%
growth at 1 µM (MOLT-4): -15%
growth at 0.1 µM (DU-145): 101%
growth at 0.1 µM (PC-3 [13]): 96%
growth at 0.1 µM (786-0): 92%
growth at 0.1 µM (UACC-62): 100%
growth at 0.1 µM (SF-295 [14]): 94%
growth at 0.1 µM (A549 [15]): 98%
growth at 0.01 µM (OVCAR-8 [16]): 102%
growth at 0.01 µM (NCI-H226): 94%
growth at 0.01 µM (A549 [17]): 98%
